# Read-outs that look alike come from different tables or passages of the source. *1 amine or outer side, *2 acyl side, *3 side chain or, on linkers, in order; H or OH if unused. Where a SMILES comes first, the peptide text is derived from it. Bridges are numbered along the chain shown (N, C = ends). [ ]: non-standard residue; d: D form. The star is where a group is joined. ξ: configuration not given here. Phe(3,5-F2) = N[CH](Cc1cc(F)cc(F)c1)C(=O)O; NH(4-OCF3-phenyl) = FC(F)(F)Oc1ccc(N*)cc1; X14 = O=C(C1CC(OP(=O)(O)O)CN1[*:1])[*:2]; Pro(4S-Me) = C[C@@H]1CN[C@H](C(=O)O)C1; Pro(4R-Me) = C[C@H]1CN[C@H](C(=O)O)C1; NH(3,4-Me2-phenyl) = Cc1ccc(N*)cc1C; aThr = C[C@H](O)[C@H](N)C(=O)O; ξPro(4ξ-Me) = CC1CNC(C(=O)O)C1; X13 = c1nc2cc(N*)ccc2[nH]1; Pip = O=C(O)[CH]1CCCCN1; CO = O=C([*:1])[*:2]
# Tests used:
# [1] = test system: Vero (kidney epithelial cells; ATCC CCL-81); assay: Cytotoxicity assay (CellTiter-Glo cell viability, 72 hours); assay type: cell-based; details: Vero cells, 72 hours, growth inhibition; read-out: Cytotoxicity IC50
# Experimental: (§1) Cytotoxicity was determined by determining the effect of compounds on cell viability. Vero (kidney epithelial cells; ATCC CCL-81) monolayers were trypsinized and 5000 cells/well were seeded (10-15% confluency) into white-wall, flat bottom 96 well microwell plates (Corning) using enriched Dulbecco's Modified Eagle's Medium (Hyclone:DMEM/High Glucose) containing 10% Fetal Bovine Serum (ATCC-30-2020). Plates were incubated overnight at 37° C. in the presence of 5% CO2. Drug-free media was then replaced with media containing serial dilutions of test compound or DMSO carrier. After an additional 72 hours of incubation, viability was indirectly measured using the CellTiter-Glo® Luminescent Cell Viability (Promega) assay. Assay plates were read at peak emission wavelength of 560 nm using a EnVision® Multilabel Plate Reader (Perkin Elmer) or PHERAstar FS Multilabel reader (BMG, Cary, N.C.). […] USA, www.graphpad.com]. For each experiment, compounds were tested in duplicate. IC50 values presented are the range of two biologically independent experiments.
# [2] = target: T1, Sa-ClpP (Staphylococcus aureus, UniProt Q2G036); assay: Sa-ClpP casein-BODIPY ClpP activation assay, method variant not marked in Table 5; assay type: biochemical, S. aureus
# T1 construct: made in house; host or cells: E. coli BL21(DE3)
# T1 sequence (Q2G036 1-195): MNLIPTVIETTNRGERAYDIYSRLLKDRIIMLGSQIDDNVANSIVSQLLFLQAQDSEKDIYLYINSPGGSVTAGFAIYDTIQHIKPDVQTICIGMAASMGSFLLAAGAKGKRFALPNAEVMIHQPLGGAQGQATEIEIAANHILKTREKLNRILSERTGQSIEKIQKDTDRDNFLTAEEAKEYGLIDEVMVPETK
# Experimental: The compounds were assayed in a casein digestion assay in order to determine their effect on ClpP activation. Briefly, the assay was carried out using S. aureus ClpP (“Sa-ClpP”) overexpressed in E. coli BL21(DE3) and purified in a two-step process. Purity of the protein was assessed through SDS PAGE analysis. EC50 evaluations were conducted in triplicate in a 20 μl assay format using a method adapted from Maurizi et al. (Methods Enzymol. (1994) 244:314-331). Each well contained 10 μM saClpP, 25 μg/ml BODIPY FL casein (Invitrogen Corporation, San Diego, Calif.), and test compound in concentrations ranging between 0-1000 μM in assay buffer (50 mM Tris pH 8, 200 mM KCl, and 1 mM TCEP). The reaction took place at 37° C. Fluorescence (excitation 485 nm; emission 528 nm) was measured in five minute intervals over a 45 min period using a BioTek HT fluorescence microplate reader (BioTek Instruments, Inc., Winooski, Vt.). Velocity of each reaction was calculated and data was fit to a dose response curve using GraphPad Prism® software (GraphPad Software, Inc., La Jolla, Calif.). EC50 is the effective concentration of compound which causes 50% activation of S. aureus ClpP in the foregoing BODIPY FL casein assay.
# Alternatively, the assay was carried out using EnzCheck Protease Assay (Molecular Probes, Catalog # E6638). The assay was performed in black 384 well, flat bottom, low volume plates (Greiner Bio-One, Monroe, N.C., catalog #784076). 10 μL of Tris*HCl buffer, pH 8.0 with 0.01% Triton X-100 was pipetted into each well using a Well-Mate (Thermo Scientific, Waltham, Mass.). 0.4 μL test compounds or controls (2% DMSO v/v) were added to each well using a Biomek FX liquid handling robot (Beckman Coulter, Indianapolis Ind.). After addition of test compounds and controls, 10 μL of master mix containing 2 μM Sa-ClpP and 2 μM substrate (Bodipy-FL labeled casein) in Tris*HCl buffer, pH 8.0 with 0.01% (v/v) Triton X-100, was pipetted into each well. All assays were performed in triplicate, under linear velocity conditions. Increase in fluorescent signal following activation of Sa-ClpP by test compounds and controls was measured over time period of 30 mins using filters with excitation at 485±15 nm and emission at 520±25 nm on a PHERAstar FS Multilabel reader (BMG, Cary, N.C.). […] Data analysis was done by measuring rate of casein degradation over time (slopes). Computed degradation rates (slopes) were normalized to positive (ADEP4) or negative (DMSO) controls. Using nonlinear regression curve fitting EC50 values and % activation were determined using the equation “log [agonist] vs. Response-variable slope (four parameters)-symmetrical” in the program Prism 6 (GraphPad Software, La Jolla, Calif. USA, www.graphpad.com).
# Substituted urea depsipetide analogs were synthesized as described above. The EC50 for ClpP activation was determined in the Sa-ClpP in casein-BODIPY assay as described above. The IC50 for ADEP displacement was determined in the ADEP displacement fluorescent polarization assay as described above; and the IC50 for growth inhibition was determined in the Vero cell cytotoxicity assay as described above. The compound number corresponds to the compound numbers used in Tables 1-4 and the experimental examples described above.
# [3] = target: T1, Sa-ClpP; assay: ADEP displacement fluorescence polarization assay (FP probe ADEP 2591); assay type: binding
# Experimental: A fluorescence polarization (FP) assay was used to determine the activity of the disclosed compounds in displacing an ADEP analogue from ClpP. Briefly, the assay was performed in black 384 well, flat bottom, low volume plates (Greiner Bio-One, Monroe, N.C., catalog #784076). 20 μL of a pre-equilibrated (1 hr, room temperature) master mix (15 μM Sa-ClpP, 2% DMSO (v/v) and 50 nM FP probe in Tris*HCl, pH 8.0)) was pipetted into each well using a Well-Mate (Thermo Scientific, Waltham, Mass.). Sa-ClpP was prepared as described above for the ClpP activation assay. The FP probe was ADEP 2591 (structure shown above). The ADEP 2591 comprises a TAMRA fluorophore linked to a core based on modified ADEP 2378 via a short alkyl linker. Using pin transfer, approximately 0.4 μL (2% v/v DMSO) of each compound or control was added per well. After addition of compounds and controls, plates were allowed to incubate for an additional 120 minutes at room temperature. All assays were performed in triplicate. Polarization was monitored using an EnVision Multilabel reader (Perkin-Elmer, Waltham, Mass.) by exciting the FP probe at 530±25 nm, and monitoring fluorescence intensity of both parallel and perpendicular polarized light at 579±25 nm. Readout was in millipolarization units (mP).
# Data collected was normalized to values obtained from positive (200 μM ADEP 2378) or negative (DMSO) controls. Curves were fit with non-linear regression using the equation “log [inhibitor] vs. Response-variable slope (four parameters)-symmetrical” in the program Prism 6 (GraphPad Software, La Jolla, Calif. USA, www.graphpad.com). The structures for ADEP 2378 and ADEP 2591 are shown above. ADEP 2378 is (E)-N—((S)-1-(((2R,6S,8aS,14aS,20S,23aS)-2,6-dimethyl-5,8,14,19,23-pentaoxooctadecahydro-1H,5H,14H,19H-pyrido[2,1-i]dipyrrolo[2,1-c:2′,1′-1][1]oxa[4,7,10,13]tetraazacyclohexadecin-20-yl)amino)-1-oxo-3-phenylpropan-2-yl)pent-2-enamide. ADEP 2591 is 5-(3-(3-((6S,9S,11aS,17S,20aS)-6,10-dimethyl-5,8,11,16,20-pentaoxo-17-((S)-2-((E)-pent-2-enamido)-3-phenylpropanamido)hexadecahydro-1H,5H,16H-dipyrrolo[2,1-c:2′,1′-1][1]oxa[4,7,10,13]tetraazacyclohexadecin-9-yl)propyl)thioureido)-2-(6-(dimethylamino)-3-(dimethyliminio)-3H-xanthen-9-yl)benzoate.
# [4] = Cytotoxicity assay (CellTiter-Glo cell viability, 72 hours); assay type: cell-based; details: African green monkey; Vero cells, 72 hours, growth inhibition; read-out: Cytotoxicity IC50
# Experimental: as §1
# [5] = values without ** or † mark, assay variant not stated, read-out: ClpP Activation EC50
# [6] = displacement of FP probe ADEP 2591 from Sa-ClpP, read-out: ADEP Displacement IC50
Compound,"EC50 [2, 5]",IC50 [3],"IC50 [3, 6]",also measured
"C[C@H]1C[C@H]2C(=O)O[C@@H](C)[C@H](NC(=O)[C@H](Cc3cc(F)cc(F)c3)NC(=O)Nc3ccc(OC(F)(F)F)cc3)C(=O)N3CCC[C@H]3C(=O)N3CCCC[C@H]3C(=O)N[C@@H](C)C(=O)N2C1 [Compound 22, (S)-3-(3,5-difluorophenyl)-2-(3-(4-(trifluoromethoxy)phenyl)ureido)-N-((2R,6S,8aS,14aS,20S,21S,23aS)-2,6,21-trimethyl-5,8,14,19,23-pentaoxooctadecahydro-1H,5H,14H,19H-pyrido[2,1-i]dipyrrolo[2,1-c:2′,1′-l][1]oxa[4,7,10,13]tetraazacyclohexadecin-20-yl)propanamide] ({NH(4-OCF3-phenyl)-CO}-[Phe(3,5-F2)][aThr]P[Pip]A[Pro(4S-Me)]; ester 2-C)",–,–,–,IC50 [1]: 52.3 ± 7.7 µM
"C[C@@H]1C[C@H]2C(=O)O[C@@H](C)[C@H](NC(=O)[C@H](Cc3cc(F)cc(F)c3)NC(=O)Nc3ccc4[nH]cnc4c3)C(=O)N3CCC[C@H]3C(=O)N3CCCC[C@H]3C(=O)N[C@@H](C)C(=O)N2C1 [Compound 303, (S)-2-(3-(1H-benzo[d]imidazol-6-yl)ureido)-3-(3,5-difluorophenyl)-N-((2R,6S,8aS,14aS,20S,21S,23aS)-2,6,21-trimethyl-5,8,14,19,23-pentaoxooctadecahydro-1H,5H,14H,19H-pyrido[2,1-i]dipyrrolo[2,1-c:2′,1′-l][1]oxa[4,7,10,13]tetraazacyclo-hexadecin-20-yl)propanamide] ({X13-CO}-[Phe(3,5-F2)][aThr]P[Pip]A[Pro(4R-Me)]; ester 2-C)",1.43 ± 0.03 µM,11.1 ± 0.4 µM,–,IC50 at 72 h [4]: > 100 µM
"Cc1ccc(NC(=O)NC(Cc2cc(F)cc(F)c2)C(=O)NC2C(=O)N3CC(OP(=O)(O)O)CC3C(=O)N3CCCCC3C(=O)NC(C)C(=O)N3CC(C)CC3C(=O)OC2C)cc1C [Compound 192, sodium (2R,6S,8aS,14aS,16R,20S,21S,23aS)-20-((S)-3-(3,5-difluorophenyl)-2-(3-(3,4-dimethylphenyl)ureido)propanamido)-2,6,21-trimethyl-5,8,14,19,23-pentaoxooctadecahydro-1H,5H,14H,19H-pyrido[2,1-i]dipyrrolo[2,1-c:2′,1′-l][1]oxa[4,7,10,13]tetraazacyclohexadecin-16-yl phosphate] ({NH(3,4-Me2-phenyl)-CO}-[Phe(3,5-F2)]T[X14][Pip]A[ξPro(4ξ-Me)]; ester 2-C; configuration not given here)",–,7.37 ± 0.28 µM,–,EC50 [2]: 0.6 ± 0.02 µM
"sodium (R)-1-((2R,6S,9S,11aS,17S,18S,20aS)-17-((S)-3-(3,5-difluorophenyl)-2-(3-(p-tolyl)ureido)propanamido)-2,6,10,18-tetramethyl-5,8,11,16,20-pentaoxohexadecahydro-1H,5H,16H-dipyrrolo[2,1-c:2′,1′-l][1]oxa[4,7,10,13]tetraazacyclohexadecin-9-yl)ethyl phosphate [Compound 193]",0.77 ± 0.05 µM,–,7.15 ± 0.33 µM,–
"sodium (2R,6S,8aS,14aS,16R,20S,21S,23aS)-20-((S)-3-(3,5-difluorophenyl)-2-(3-(p-tolyl)ureido)propanamido)-2,6,21-trimethyl-5,8,14,19,23-pentaoxooctadecahydro-1H,5H,14H,19H-pyrido[2,1-i]dipyrrolo[2,1-c:2′,1′-l][1]oxa[4,7,10,13]tetraazacyclohexadecin-16-yl phosphate [Compound 191]",0.7 ± 0.03 µM,–,8.56 ± 0.38 µM,–
